Literature values, collected in US7060435B1, “Genotyping cytochrome expression” (Janssen Pharmaceutica, priority 1998, dated 2006).

Target: CYP3A4 and CYP3A5 (Homo sapiens, UniProt P08684)
Settings: samples containing only CYP3A4

Sequence of CYP3A4 and CYP3A5 (P08684 2-503): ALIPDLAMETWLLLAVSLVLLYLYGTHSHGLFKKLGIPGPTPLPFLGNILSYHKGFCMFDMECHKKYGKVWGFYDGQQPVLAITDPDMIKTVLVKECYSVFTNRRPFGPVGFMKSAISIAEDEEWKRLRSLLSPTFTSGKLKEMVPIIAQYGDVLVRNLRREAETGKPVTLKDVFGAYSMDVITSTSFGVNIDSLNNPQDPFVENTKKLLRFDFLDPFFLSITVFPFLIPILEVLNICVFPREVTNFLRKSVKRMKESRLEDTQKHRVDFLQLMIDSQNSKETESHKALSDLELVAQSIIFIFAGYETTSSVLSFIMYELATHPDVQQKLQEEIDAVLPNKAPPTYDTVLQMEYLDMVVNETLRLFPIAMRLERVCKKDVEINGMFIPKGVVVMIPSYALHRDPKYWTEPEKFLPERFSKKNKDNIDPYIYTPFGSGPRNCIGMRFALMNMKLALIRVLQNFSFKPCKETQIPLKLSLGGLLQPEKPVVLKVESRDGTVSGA

**Q.** Which 1-OHM/4-OHM ratio does the source give for `Cc1ncc2n1-c1ccc(Cl)cc1C(c1ccccc1F)=NC2` [midazolam] here?
**A.** < 4
